Measured values as given in patent publication US20050020576A1, “Kappa agonist compounds and pharmaceutical formulations thereof” (priority 1996, published 2005).
Where a name gives a salt, the structure may show the parent alone.

Target: cloned human kappa receptor (Homo sapiens, UniProt P41145)
Assay: biochemical
Assay type: binding
Conditions: not given

Chain of cloned human kappa receptor (P41145 whole entry): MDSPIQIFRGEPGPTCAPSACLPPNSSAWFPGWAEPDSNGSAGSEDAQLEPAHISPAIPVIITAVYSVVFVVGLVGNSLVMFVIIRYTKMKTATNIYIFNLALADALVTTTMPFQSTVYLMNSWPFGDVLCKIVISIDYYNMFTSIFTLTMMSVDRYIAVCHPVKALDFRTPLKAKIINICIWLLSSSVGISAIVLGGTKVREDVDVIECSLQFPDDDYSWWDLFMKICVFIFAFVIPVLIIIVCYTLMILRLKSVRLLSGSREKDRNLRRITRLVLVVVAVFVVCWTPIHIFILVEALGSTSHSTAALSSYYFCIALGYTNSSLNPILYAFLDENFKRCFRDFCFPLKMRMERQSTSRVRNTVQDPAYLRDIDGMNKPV

| Compound | [3H]-Diprenorphin, % @ 1 μM |
| --- | --- |
| (±)-trans-3-N-Methyl-N-[2-(1-pyrrolidinyl)cyclohexyl]-(trans-3-furyl)acetamide hydrochloride [Example 4f] | 0% @ 1 μM |

Same assay, conditions: Ki (nM) [3H]-Diprenorphin κ

| Compound | Ki |
| --- | --- |
| COc1cc(CC(=O)N(C)[C@H](CN2CCCC2)c2ccccc2)c(S(=O)(=O)N(C)CC(=O)O)cc1OC [Example 142, N-Methyl-[[2-(N-sulfamoyl)-4,5-dimethoxyphenyl]-N-methyl-N-[(1S)-1-phenyl-2-[1-(pyrrolidinyl)ethyl]]acetamido]glycine] | 13 nM |
| COc1cc(CC(=O)N(C)[C@H](CN2CCCC2)c2ccccc2)c(S(=O)(=O)N(C)Cc2ccccc2)cc1OC [Example 148, 2-[2-(N-Benzyl-N-methylsulfamoyl)-4,5-dimethoxyphenyl]-N-methyl-N-[(1S)-1-phenyl-2-[(1-pyrrolidinyl)ethyl]]acetamide] | 0.83 nM |

Same assay, conditions: read-out: Ki(nM) [3H]-Diprenorphin κ

| Compound | Ki |
| --- | --- |
| COc1cc(CC(=O)N(C)[C@H](CN2CCCC2)c2ccccc2)c(S(=O)(=O)NC(C)(C)C)c(OC)c1OC [Example 144, 2-[2-(N-t-Butylsulfamoyl)-3,4,5-trimethoxyphenyl]-N-methyl-N-[(1S)-1-phenyl-2-[(1-pyrrolidinyl)ethyl]]acetamide] | 0.17 nM |

Tested on: not given
Assay: not given
Conditions: not given

| Compound | melting point |
| --- | --- |
| COc1cc(CC(=O)N(C)[C@H](CN2CC[C@H](O)C2)c2ccccc2)cc(OC)c1OC.Cl | 230 to 232 °C |
| Cl.NS(=O)(=O)N1CCN(C(=O)Cc2ccc(Cl)c(Cl)c2)[C@H](CN2CCCC2)C1 | 183 to 185 °C |
| CN(C(=O)Cc1ccccc1[N+](=O)[O-])[C@H](CN1CCCC1)c1cccc([N+](=O)[O-])c1 (as salt: HCl) | 258 to 259 °C |
| CN(C(=O)Cc1ccccc1N)[C@H](CN1CCCC1)c1cccc(N)c1 (as salt: HCl) | 219 to 222 °C |
| CN(C(=O)Cc1cc(Cl)c(Cl)cc1[N+](=O)[O-])[C@H](CN1CCCC1)c1cccc([N+](=O)[O-])c1 (as salt: HCl) | 165 °C (dec.) |
| CN(C(=O)Cc1ccc(S(C)(=O)=O)cc1)[C@H](CN1CCCC1)c1cccc([N+](=O)[O-])c1 (as salt: HCl) | 276 to 277 °C |
| CCCCOC(=O)Nc1ccc(CC(=O)N(C)[C@H](CN2CCCC2)c2cccc([N+](=O)[O-])c2)cc1 (as salt: HCl) | 170 °C (dec.) |
| CN(C(=O)Cc1ccccc1NCC(=O)O)C1CCCCC1N1CCCC1 (centres unmarked) (as salt: HCl) | 212 to 214 °C (dec.) |
| CN(C(=O)Cc1ccc(C(F)(F)F)cc1NCC(=O)O)C1CCCCC1N1CCCC1 (centres unmarked) (as salt: HCl) | 178 to 180 °C (dec.) |
| CN(C(=O)Cc1ccc(N)cc1)[C@H](CN1CCCC1)c1cccc([N+](=O)[O-])c1 (as salt: HCl) | 200 °C (dec.) |
| CN(C(=O)Cc1ccc(OCc2ccccc2)c(NS(C)(=O)=O)c1)[C@H](CN1CCCC1)c1ccccc1 (as salt: HCl) [Example 123, 2-(3-N-Methylsulfonamido-3-amino-4-benzyloxyphenyl)-N-methyl-N-[(1S)-1-phenyl-2-(1-pyrrolidinyl)ethyl]acetamide] | 219 to 221 °C |
| CN(C(=O)Cc1ccc(O)c(NS(C)(=O)=O)c1)[C@H](CN1CCCC1)c1ccccc1 (as salt: HCl) [Example 124, 2-(3-N-Methylsulfonamido-3-amino-4-hydroxyphenyl)-N-methyl-N-[(1S)-1-phenyl-2-(1-pyrrolidinyl)ethyl]acetamide] | 228 to 230 °C |
| CN(C(=O)Cc1ccccc1NS(C)(=O)=O)[C@H](CN1CC[C@H](O)C1)c1ccccc1 (as salt: HCl) [Example 125, 2-(2-N-Methylsulfonamido-2-aminophenyl)-N-methyl-N-[(1S)-1-phenyl-2-[1-(3S)-(3-hydroxypyrrolidinyl)ethyl]]acetamide] | 168 to 171 °C |
| CN(C(=O)Cc1ccc(C(F)(F)F)cc1NS(C)(=O)=O)[C@H](CN1CC[C@H](O)C1)c1ccccc1 (as salt: HCl) [Example 126, 2-(2-N-Methylsulfonamido-2-amino-4-trifluoromethylphenyl)-N-methyl-N-[(1S)-1-phenyl-2-[1-(3S)-(3-hydroxypyrrolidinyl)ethyl]]acetamide] | 178 to 181 °C |
| COc1ccc(CC(=O)N(C)[C@H](CN2CC[C@H](O)C2)c2ccccc2)cc1NS(C)(=O)=O (as salt: HCl) [Example 127, 2-(3-N-Methylsulfonamido-3-amino-4-methoxyphenyl)-N-methyl-N-[(1S)-1-phenyl-2-[1-(3S)-(3-hydroxypyrrolidinyl)ethyl]]acetamide] | 148 to 151 °C |
| CN(C(=O)Cc1cc2c(cc1S(=O)(=O)N(C)C)OCO2)[C@H](CN1CCCC1)c1ccccc1 (as salt: HCl) [Example 132, 2-[2-(N-Dimethylsulfamoyl)-4,5-methylenedioxyphenyl]-N-methyl-N-[(1S)-1-phenyl-2-[(1-pyrrolidinyl)ethyl]]acetamide] | 269 to 271 °C |

| Compound | melting point |
| --- | --- |
| COc1cc(CC(=O)N(C)[C@H](CN2CCCC2)c2ccccc2)c(S(=O)(=O)N2CCCC2)cc1OC (as salt: HCl) [Example 134, 2-[2-(N-Pyrrolidinesulfamoyl)-4,5-dimethoxyphenyl]-N-methyl-N-[(1S)-1-phenyl-2-[(1-pyrrolidinyl)ethyl]]acetamide] | 240 to 242 °C |
| COc1cc(CC(=O)N(C)[C@H](CN2CCCC2)c2ccccc2)c(S(=O)(=O)N(C)C)cc1OC (as salt: HCl) [Example 136, 2-[2-(N-Dimethylsulfamoyl)-4,5-dimethoxyphenyl]-N-methyl-N-[(1S)-1-phenyl-2-[(1-pyrrolidinyl)ethyl]]acetamide] | 246 to 248 °C |
| COc1cc(CC(=O)N(C)[C@H](CN2CCCC2)c2ccccc2)c(S(=O)(=O)N2CCN(C)CC2)cc1OC (as salt: HCl) [Example 138] | 255 to 257 °C (dec.) |
| COc1cc(CC(=O)N(C)[C@H](CN2CC[C@H](O)C2)c2ccccc2)c(S(=O)(=O)N2CCN(C)CC2)cc1OC (as salt: HCl) [Example 139] | 168 to 171 °C |
| COc1cc(CC(=O)N(C)[C@H](CN2CCCC2)c2ccccc2)c(S(=O)(=O)N2CCOCC2)cc1OC (as salt: HCl) [Example 140, 2-[2-N-(Morpholinesulfamoyl)-4,5-dimethoxyphenyl]-N-methyl-N-[(1S)-1-phenyl-2-[1-(pyrrolidinyl)ethyl]]acetamide] | 229 to 231 °C |
| COc1cc(CC(=O)N(C)[C@H](CN2CC[C@H](O)C2)c2ccccc2)c(S(=O)(=O)N2CCOCC2)cc1OC (as salt: HCl) [Example 141, 2-[2-N-(Morpholinesulfamoyl)-4,5-dimethoxyphenyl]-N-methyl-N-[(1S)-1-phenyl-2-[1-(3S)-(3-hydroxypyrrolidinyl)ethyl]]acetamide] | 158 to 161 °C |
| COc1cc(CC(=O)N(C)[C@H](CN2CCCC2)c2ccccc2)c(S(=O)(=O)N(C)CC(=O)O)cc1OC (as salt: HCl) [Example 142, N-Methyl-[[2-(N-sulfamoyl)-4,5-dimethoxyphenyl]-N-methyl-N-[(1S)-1-phenyl-2-[1-(pyrrolidinyl)ethyl]]acetamido]glycine] | 231 to 233 °C (dec.) |
| COc1cc(CC(=O)N(C)[C@H](CN2CCCC2)c2ccccc2)c(S(=O)(=O)N(C)Cc2ccccc2)cc1OC (as salt: HCl) [Example 148, 2-[2-(N-Benzyl-N-methylsulfamoyl)-4,5-dimethoxyphenyl]-N-methyl-N-[(1S)-1-phenyl-2-[(1-pyrrolidinyl)ethyl]]acetamide] | 188 to 189 °C |
| CCOP(=O)(OCC)N1CCN(C(=O)Cc2ccc(Cl)c(Cl)c2)[C@H](CN2CCCC2)C1 (as salt: hydrochloride) [(R-3g), (R)-4-(Diethoxyphosphonate)-1-[(3,4-dichlorophenyl)acetyl]-2-[(1-pyrolidinyl)methyl]-piperazine hydrochloride] | 168 to 170 °C |
| O=C(Cc1ccc(Cl)c(Cl)c1)N1CCN(C(=O)C(F)(F)F)C[C@H]1CN1CCCC1 (as salt: hydrochloride) [(R-3h), (R)-4-Trifluoroacetyl-1-(3,4-dichlorophenyl)acetyl]-2-[(1-pyrrolidinyl)methyl]-piperazine hydrochloride] | 145 to 147 °C |
| Cc1ccc(S(=O)(=O)N2CCN(C(=O)Cc3ccc(Cl)c(Cl)c3)[C@H](CN3CCCC3)C2)cc1 (as salt: hydrochloride) [(R-3l), (R)-4-(4-Methyphenylsulfonyl)-1-[(3,4-dichlorophenyl)acetyl]-2-[(1-Pyrrolidinyl)methyl]-piperazine hydrochloride] | 240 °C (dec.) |
| CS(=O)(=O)O[C@H]1CCN(CC2CN(S(C)(=O)=O)CCN2C(=O)Cc2ccc(Cl)c(Cl)c2)C1 (stereo partly drawn) (as salt: hydrochloride) [Example 1jj, 4-Methanesulfonyl-1-[(3,4-dichlorophenyl)acetyl]-2-(R,S)-[3-(S)-methanesulfonate-1-(pyrrolidinyl)methyl]piperazine hydrochloride] | 130 to 132 °C |
| CN(C(=O)Cc1ccc(C(F)(F)F)cc1NCC(=O)O)[C@H](CN1CCCC1)c1ccccc1 (as salt: hydrochloride) [Example 3b, N-[(4-Trifluoromethylphenyl)-N-methyl-N-{[1S]-1-phenyl-2-[1-pyrrolidinyl)]ethyl}acetamido]glycine hydrochloride] | 228 to 230 °C (dec.) |
| CCOP(=O)(Nc1cccc([C@@H](CN2CCCC2)N(C)C(=O)Cc2ccc(Cl)c(Cl)c2)c1)OCC (as salt: hydrochloride) [Example 3g, 2-(3,4-Dichlorophenyl)-N-methyl-N-[(1S)-1-[3-(diethyl Phosphoryl)amino]phenyl)-2-(1-pyrrolidinyl)ethyl]acetamide hydrochloride] | 140 to 142 °C |
| CN(C(=O)Cc1ccc(Cl)c(Cl)c1)[C@H](CN1CCCC1)c1cccc(NC(=O)CCC(=O)NCC(=O)O)c1 (as salt: hydrochloride) [Example 3j, 2-(3,4-Dichlorophenyl)-N-methyl-N-{(1R,S)-1-[3-(3-(((hydroxycarbonyl)-methyl)aminocarbonyl)propionamido)phenyl]-2-(1-pyrrolidinyl)ethyl}acetamide hydrochloride] | 158 °C (dec.) |
